The text below walks through data of US20210299286A1, “TETRAZINES FOR HIGH CLICK CONJUGATION YIELD IN VIVO AND HIGH CLICK RELEASE YIELD” (Tagworks Pharmaceuticals B.V., priority 2018, published 2021).

Like-named read-outs stand apart in the source and are kept apart here.

Series [1] can be described thus: In vitro tetrazine stability (decrease of UV absorbance at 520 nm). The format is physicochemical. The settings on record: read-out: In vitro tetrazine stability (h), t1/2 (converted). As to the method:
The stability of tetrazines was evaluated by dissolving them in 10% MeCN/PBS at 37° C. and following the decrease of the tetrazine UV absorbance at 520 nm in time (Table 4).

A short description of series [2]: Second-order reaction rate constant with TCO derivative by UV spectroscopy. The settings on record: 25% MeCN/PBS at 20° C. The format is physicochemical. As for the experimental part:
The second-order reaction rate constants were calculated from the rate at which the absorption at 520 nm (specific for the TZ moiety) decreased (Table 4).

Series [3] concerns AVP0458-TCO-MMAE. The series can be described thus: MMAE release from diabody ADC with D8-MMAE internal standard (LC-SIM-MS). The settings on record: 10 equiv of tetrazine, PBS/plasma (1/1), 37° C., after 24 h, n=3. The format is biochemical. As for the experimental part:
In an alternative method MMAE release from diabody ADC (AVP0458-TCO-MMAE) was determined by using a deuterated internal standard D8-MMAE. ADC (1.1×10^−10 moles bound MMAE) and D8-MMAE (1.1×10^−10 moles) and 10 equiv of tetrazine were incubated in 100 uL PBS/plasma (1/1) at 37° C.

The subject of series [4] is LS174T human colon carcinoma cells. The series can be described thus: Cell proliferation (MTT) assay of ADCs with range of tetrazines. The conditions noted are these: 3-day incubation; for cell growth inhibition, combination of ADC and activator: CC49-TCO-Dox 0.1 μM or AVP0458-TCO-MMAE 1 nM plus activator 1 μM; for cell growth inhibition, activators alone: activator 1 μM alone. The format is cell-based. As to the method:
Cell proliferation was assessed after a 3-day incubation by means of an MTT assay and was expressed as the % of that obtained without treatment.

Series [5] has as its system CC49-TCO-Dox. The series can be described thus: In vitro Dox release from CC49-TCO-Dox in PBS. The format is biochemical. As for the experimental part: (§1) Doxorubicin (Dox) release from the TCO-linked ADC CC49-TCO-Dox with various TZ activators in PBS and 50% mouse serum at 37° C. was evaluated in vitro as described in Rossin et al. Bioconjug. […] The results of these experiments are depicted in Tables 3 (PBS) and 4 (mouse serum). The release reactions were performed in triplicate unless otherwise stated in the result table.

Series [6] has as its system CC49-TCO-Dox. The series can be described thus: In vitro Dox release from CC49-TCO-Dox in 50% mouse serum. The format is biochemical. As for the experimental part: as §1

Regarding `Cc1nnc(-c2nccc(C(=O)O)n2)nn1` [Compound 4.23], the half-life in series [1] (10% MeCN/PBS) was 6 h. In addition, the “reactivity (k2)” value in series [2] stood at 246 M⁻¹ s⁻¹. In addition, in series [3], the “induced MMAE release (%) from AVP0458-TCO-MMAE” value (from here on “induced MMAE release (%)”) was 69 ± 0.5%.
Regarding `NCCc1nnc(-c2nccc(CNC(=O)CCCC(=O)O)n2)nn1` [Compound 5.5], in series [3], the “induced MMAE release (%)” value came out at 81 ± 0.4%.
As to `CN(CCc1nnc(-c2ncccn2)nn1)C(=O)N1CCN(C(=O)c2ccc(F)cc2)CC1` [Compound 4.33, 4-(4-fluorobenzoyl)-N-methyl-N-(2-(6-(pyrimidin-2-yl)-1,2,4,5-tetrazin-3-yl)ethyl)piperazine-1-carboxamide], in series [3], the “induced MMAE release (%)” value turned out to be 53 ± 0.6%. For the same compound, in series [4], the “cell growth inhibition, combination of ADC and activator” value (“cell growth inhibition, combination” for short) was “growth inhibition approached that achieved with the corresponding amount of free drug”; the “cell growth inhibition, activators alone” value is recorded as “minimal cell growth inhibition”.
Consider `Cc1nnc(-c2nccc(CNC(=O)CCCC(=O)O)n2)nn1` [Compound 4.27], for which the “induced MMAE release (%)” value in series [3] is reported as 66 ± 0.5%.
In the case of `Cc1nnc(-c2ccc(NC(=O)CCCC(=O)NCCOCCOCCOCCOCCOCCOCCOCCOCCOCCOCCOCCNC(=O)CN3CCN(CC(=O)O)CCN(CC(=O)O)CCN(CC(=O)O)CC3)cn2)nn1` [Compound 3.4, 2,2′,2″-(10-(44-((6-(6-methyl-1,2,4,5-tetrazin-3-yl)pyridin-3-yl)amino)-2,40,44-trioxo-6,9,12,15,18,21,24,27,30,33,36-undecaoxa-3,39-diazatetratetracontyl)-1,4,7,10-tetraazacyclododecane-1,4,7-triyl)triacetic acid], the “induced MMAE release (%)” value in series [3] stood at 47 ± 0.3%. In addition, in series [4], the “cell growth inhibition, combination” value is “growth inhibition approached that achieved with the corresponding amount of free drug”; the “cell growth inhibition, activators alone” value was “minimal cell growth inhibition”.
In the case of `Cc1nnc(-c2ccncn2)nn1` [Compound 4.19], the half-life in series [1] (buffer) is 1 h. Besides, the “reactivity (k2)” value in series [2] worked out at 290 M⁻¹ s⁻¹. Moreover, the “induced MMAE release (%)” value in series [3] stood at 60 ± 0.1%.
As for `Cc1nnc(-c2cnccn2)nn1` [Compound 4.18], in series [1] (10% MeCN/PBS), the half-life was 16 h. In series [2], the “reactivity (k2)” value was determined as 150 M⁻¹ s⁻¹. The “induced MMAE release (%)” value in series [3] is 55 ± 0.8%.
With `COCCOCCOCCOCCOCCOCCOCCOCCOCCOCCOCC(=O)NCCCc1nnc(-c2ncccn2)nn1` [Compound 4.24], the half-life in series [1] (10% MeCN/PBS) is 13 h.
In the case of `Cc1nnc(-c2nccnc2C)nn1` [Compound 4.20], in series [1] (10% MeCN/PBS), the half-life was 15 h. In addition, in series [2], the “reactivity (k2)” value is 28 M⁻¹ s⁻¹. The “induced MMAE release (%)” value in series [3] came to 59 ± 0.3%.
Take “3,6-dimethyl-1,2,4,5-tetrazine functional dextran [Compound 2.2]”: in series [5], the “In vitro Dox release (%) from CC49-Dox at 37° C. in PBS: 1 h” value (from here on “In vitro Dox release (%) … in PBS: 1 h”) is on record as 44.9%, the “In vitro Dox release (%) from CC49-Dox at 37° C. in PBS: 2 h” value (“In vitro Dox release (%) … in PBS: 2 h” for short) stood at 51.3%, the “In vitro Dox release (%) from CC49-Dox at 37° C. in PBS: 3 h” value (“In vitro Dox release (%) … in PBS: 3 h” for short) came to 54.6% and the “In vitro Dox release (%) from CC49-Dox at 37° C. in PBS: 24 h” value (“In vitro Dox release (%) … 24 h” for short) is listed as 62.3%. In series [6], the “In vitro Dox release (%) from CC49-Dox at 37° C. in 50% mouse serum: 1 h” value (from here on “In vitro Dox release … in 50% mouse serum: 1 h”) is on record as 34.0 ± 1.2%, the “In vitro Dox release (%) from CC49-Dox at 37° C. in 50% mouse serum: 2 h” value (“In vitro Dox release … in 50% mouse serum: 2 h” for short) is given as 43.4 ± 1.5% and the “In vitro Dox release (%) from CC49-Dox at 37° C. in 50% mouse serum: 3 h” value (“In vitro Dox release … in 50% mouse serum: 3 h” for short) was 48.6 ± 1.2%.
Turning to “3-(pyridin-2-yl)-6-methyl-1,2,4,5-tetrazine functional dextran [Compound 3.2]”, in series [5], the “In vitro Dox release (%) … in PBS: 1 h” value is recorded as 44.3%, the “In vitro Dox release (%) … in PBS: 2 h” value is listed as 44.7%, the “In vitro Dox release (%) … in PBS: 3 h” value came out at 47.5% and the “In vitro Dox release (%) … 24 h” value is recorded as 45.0%. In addition, in series [6], the “In vitro Dox release … in 50% mouse serum: 1 h” value turned out to be 36.1 ± 0.1%, the “In vitro Dox release … in 50% mouse serum: 2 h” value is given as 39.8 ± 0.2% and the “In vitro Dox release … in 50% mouse serum: 3 h” value turned out to be 42.0 ± 0.4%.
Turning to `O=C(O)CN1CCN(CC(=O)O)CCN(CC(=O)NCCOCCOCCOCCOCCOCCOCCOCCOCCOCCOCCOCCNC(=O)CCCC(=O)Nc2ccc(-c3nnc(-c4ccccn4)nn3)nc2)CCN(CC(=O)O)CC1` [Compound 5.1, 2,2′,2″-(10-(2,40,44-Trioxo-44-((6-(6-(pyridine-2-yl)-1,2,4,5-tetrazin-3-yl)pyridine-3-yl)amino)-6,9,12,15,18,21,24,27,30,33,36-undecaoxa-3,39-diazatetratetracontyl)-1,4,7,10-tetraazacyclododecane-1,4,7-triyl)triacetic acid], in series [5], the “In vitro Dox release (%) … in PBS: 1 h” value was 14.2%, the “In vitro Dox release (%) … in PBS: 2 h” value is given as 20.4%, the “In vitro Dox release (%) … in PBS: 3 h” value was 24.3% and the “In vitro Dox release (%) … 24 h” value is recorded as 48.1%. Moreover, the “In vitro Dox release (%) from CC49-Dox at 37° C. in PBS: 48 h” value in series [5] is on record as 54.9%. For the same compound, in series [6], the “In vitro Dox release … in 50% mouse serum: 1 h” value is 13.7 ± 0.7%, the “In vitro Dox release … in 50% mouse serum: 2 h” value is on record as 15.2 ± 1.4% and the “In vitro Dox release … in 50% mouse serum: 3 h” value turned out to be 14.8 ± 0.8%.
As to `Cc1nnc(-c2nccc(CNC(=O)OC(C)(C)C)n2)nn1` [Compound 4.17], the half-life in series [1] (10% MeCN/PBS) was 12 h. Also, the “reactivity (k2)” value in series [2] was found to be 412 M⁻¹ s⁻¹. The “induced MMAE release (%)” value in series [3] stood at 70 ± 0.1%.
With `O=C(O)CN1CCN(CC(=O)O)CCN(CC(=O)NCCOCCNC(=O)CCCC(=O)NCCCc2nnc(CCCNC(=O)CCCC(=O)NCCOCCNC(=O)CN3CCN(CC(=O)O)CCN(CC(=O)O)CCN(CC(=O)O)CC3)nn2)CCN(CC(=O)O)CC1` [Compound 5.3, Tz-bis-DOTA], in series [5], the “In vitro Dox release (%) … in PBS: 1 h” value came to 50.5%, the “In vitro Dox release (%) … in PBS: 2 h” value was 59.3%, the “In vitro Dox release (%) … in PBS: 3 h” value stood at 62.5% and the “In vitro Dox release (%) … 24 h” value was 80.3%. Besides, the “In vitro Dox release (%) from CC49-Dox at 37° C. in PBS: 48 h” value in series [5] was found to be 91.2%. In addition, in series [6], the “In vitro Dox release … in 50% mouse serum: 1 h” value came out at 43.6 ± 3.5%, the “In vitro Dox release … in 50% mouse serum: 2 h” value is 54.9 ± 6.0% and the “In vitro Dox release … in 50% mouse serum: 3 h” value worked out at 64.4 ± 3.3%. The “In vitro Dox release (%) from CC49-Dox at 37° C. in 50% mouse serum: 6 h” value in series [6] (6 h) is recorded as 67.5 ± 8.3%.
As to `Cc1nnc(-c2ccccn2)nn1` [Compound 3.1, 3-(2-pyridyl)-6-methyl-1,2,4,5-tetrazine], in series [5], the “In vitro Dox release (%) … in PBS: 1 h” value came out at 55.1%, the “In vitro Dox release (%) … in PBS: 2 h” value is 55.9%, the “In vitro Dox release (%) … in PBS: 3 h” value is 58.9% and the “In vitro Dox release (%) … 24 h” value was determined as 59.6%. Also, in series [6], the “In vitro Dox release … in 50% mouse serum: 1 h” value is given as 53.8 ± 1.7%, the “In vitro Dox release … in 50% mouse serum: 2 h” value stood at 57.1 ± 1.8% and the “In vitro Dox release … in 50% mouse serum: 3 h” value is recorded as 59.6 ± 2.0%.
As for `CN(CCc1nnc(-c2ncccn2)nn1)C(=O)c1ccc(F)cc1` [Compound 4.35, 4-fluoro-N-methyl-N-(2-(6-(pyrimidin-2-yl)-1,2,4,5-tetrazin-3-yl)ethyl)benzamide], in series [3], the “induced MMAE release (%)” value was determined as 67 ± 0.1%. Also, in series [4], the “cell growth inhibition, combination” value is “growth inhibition approached that achieved with the corresponding amount of free drug”; the “cell growth inhibition, activators alone” value was “minimal cell growth inhibition”.
With `NCCc1nnc(-c2nccc(CNC(=O)CCCC(=O)NC(CO)(CO)CO)n2)nn1` [Compound 5.8], the “induced MMAE release (%)” value in series [3] amounted to 80 ± 0.5%.
